Values after ≈ are worked out from the molar mass of the structure shown.
Key:
Format in all cases: functional
[1] = tested on: Staphylococcus aureus; assay: Resistance fold, ratio of MIC for Staphylococcus aureus ATCC 25923 measured after 8th passage to MIC for Staphylococcus aureus ATCC 25923 measured immediately
[2] = tested on: Bacillus subtilis; assay: Antimicrobial activity against Bacillus subtilis ATCC 23857 assessed as inhibition of visible bacterial growth incubated for 18 hrs by broth microdilution method
[3] = tested on: Pseudomonas aeruginosa; assay: Resistance fold, ratio of MIC for Pseudomonas aeruginosa ATCC 27853 measured after 10th passage to MIC for Pseudomonas aeruginosa ATCC 27853 measured immediately
[4] = tested on: Klebsiella pneumoniae; assay: Antimicrobial activity against Klebsiella pneumoniae ATCC 700603 assessed as inhibition of visible bacterial growth incubated for 18 hrs by broth microdilution method
[5] = tested on: Enterococcus faecalis; assay: Antimicrobial activity against Enterococcus faecalis ATCC 29212 assessed as inhibition of visible bacterial growth incubated for 18 hrs by broth-dilution method
[6] = tested on: Staphylococcus epidermidis; assay: Antimicrobial activity against Staphylococcus epidermidis ATCC 12228 assessed as inhibition of visible bacterial growth incubated for 18 hrs by broth-dilution method
[7] = tested on: Acinetobacter baumannii; assay: Antimicrobial activity against Acinetobacter baumannii ATCC 19606 assessed as inhibition of visible bacterial growth incubated for 18 hrs by broth microdilution method
[8] = tested on: Staphylococcus aureus; assay: Antimicrobial activity against gentamicin-resistant Staphylococcus aureus ATCC 25923 assessed as inhibition of visible bacterial growth incubated for 18 hrs by broth-dilution method
[9] = tested on: Escherichia coli; assay: Antimicrobial activity against Escherichia coli ATCC 25922 assessed as inhibition of visible bacterial growth incubated for 18 hrs by broth microdilution method
[10] = tested on: Pseudomonas aeruginosa; assay: Antimicrobial activity against Pseudomonas aeruginosa ATCC 27853 assessed as inhibition of visible bacterial growth incubated for 18 hrs by broth microdilution method
[11] = tested on: Pseudomonas aeruginosa; assay: Antimicrobial activity against gentamicin-resistant Pseudomonas aeruginosa ATCC 27853 assessed as inhibition of visible bacterial growth incubated for 18 hrs by broth microdilution method
[12] = tested on: Staphylococcus aureus; assay: Antimicrobial activity against Staphylococcus aureus ATCC 25923 assessed as inhibition of visible bacterial growth incubated for 18 hrs by broth-dilution method

Structure (SMILES): CN[C@@H]1[C@@H](O)[C@@H](O[C@@H]2[C@@H](O)[C@H](O[C@H]3O[C@H]([C@@H](C)NC)CC[C@H]3N)[C@@H](N)C[C@H]2N)OC[C@]1(C)O [GENTAMICIN C1]
- fold change (FC) [1]: 32
- MIC [2]: < 1 µM
- fold change (FC) [3]: 32
- MIC [4]: 16 µM (≈ 7.64 µg/mL)
- MIC [5]: 16 µM (≈ 7.64 µg/mL)
- MIC [6]: < 1 µM
- MIC [7]: 16 µM (≈ 7.64 µg/mL)
- MIC [8]: 32 µM (≈ 15.3 µg/mL)
- MIC [9]: 2 µM (≈ 0.955 µg/mL)
- MIC [10]: < 1 µM
- MIC [11]: 64 µM (≈ 30.6 µg/mL)
- MIC [12]: < 1 µM
